Assay results from PubChem BioAssay (NCI).
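Where inhibition never reached the appropriate level, the endpoint shown equals the highest concentration tested. Otherwise, values were interpolated linearly from a five-concentration, 48-hour dose response in 96-well plates. GI50 = concentration required for 50% inhibition of growth. TGI: total growth inhibition.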

Legend:
Test in all cases: NCI-60 cell line screen, 48 h
SK-MEL-28 melanoma = system: SK-MEL-28 melanoma
SNB-75 CNS = system: SNB-75 CNS
DU-145 prostate = system: DU-145 prostate
MALME-3M melanoma = system: MALME-3M melanoma
EKVX NSCLC = system: EKVX NSCLC
U251 CNS = system: U251 CNS
UACC-257 melanoma = system: UACC-257 melanoma
COLO 205 colon = system: COLO 205 colon
NCI-H460 lung = system: NCI-H460 lung
SK-MEL-2 melanoma = system: SK-MEL-2 melanoma
HOP-92 NSCLC = system: HOP-92 NSCLC
NCI-H23 lung = system: NCI-H23 lung
SNB-19 CNS = system: SNB-19 CNS
MDA-MB-231 breast = system: MDA-MB-231 breast
ACHN renal = system: ACHN renal
SN12C renal = system: SN12C renal
K-562 leukemia = system: K-562 leukemia
UO-31 renal = system: UO-31 renal
A549 NSCLC = system: A549 NSCLC
SR leukemia = system: SR leukemia
A498 renal = system: A498 renal
M14 melanoma = system: M14 melanoma
SF-268 CNS = system: SF-268 CNS
MCF7 breast = system: MCF7 breast
KM12 colon = system: KM12 colon
LOX IMVI melanoma = system: LOX IMVI melanoma
BT-549 breast = system: BT-549 breast
TK-10 renal = system: TK-10 renal
SF-295 CNS = system: SF-295 CNS
RXF 393 renal = system: RXF 393 renal
786-0 renal = system: 786-0 renal
SK-MEL-5 melanoma = system: SK-MEL-5 melanoma
NCI/ADR-RES ovarian = system: NCI/ADR-RES ovarian
SW-620 colon = system: SW-620 colon
SK-OV-3 ovarian = system: SK-OV-3 ovarian
CAKI-1 renal = system: CAKI-1 renal
HL-60(TB) leukemia = system: HL-60(TB) leukemia
HS 578T breast = system: HS 578T breast
IGROV1 ovarian = system: IGROV1 ovarian
OVCAR-4 ovarian = system: OVCAR-4 ovarian
OVCAR-5 ovarian = system: OVCAR-5 ovarian
HCT-15 colon = system: HCT-15 colon
UACC-62 melanoma = system: UACC-62 melanoma
MDA-MB-435 = system: MDA-MB-435
HOP-62 NSCLC = system: HOP-62 NSCLC
T-47D breast = system: T-47D breast
SF-539 CNS = system: SF-539 CNS
NCI-H226 lung = system: NCI-H226 lung
MOLT-4 leukemia = system: MOLT-4 leukemia
HT29 colon = system: HT29 colon
CCRF-CEM leukemia = system: CCRF-CEM leukemia
OVCAR-3 ovarian = system: OVCAR-3 ovarian

COc1cc(CCNc2nc3cc(N)cc(N)c3nc2-c2ccccc2)cc(OC)c1
GI50 (SK-MEL-28 melanoma): 1.63 µM
TGI (SK-MEL-28 melanoma): 3.31 µM
GI50 (SNB-75 CNS): 1.37 µM
TGI (SNB-75 CNS): 2.85 µM
GI50 (DU-145 prostate): 5.48 µM
TGI (DU-145 prostate): 17.8 µM
GI50 (MALME-3M melanoma): 1.18 µM
TGI (MALME-3M melanoma): 2.53 µM
GI50 (EKVX NSCLC): 1.8 µM
TGI (EKVX NSCLC): 3.4 µM
GI50 (U251 CNS): 1.67 µM
TGI (U251 CNS): 3.11 µM
GI50 (UACC-257 melanoma): 1.76 µM
TGI (UACC-257 melanoma): 3.61 µM
GI50 (COLO 205 colon): 1.76 µM
TGI (COLO 205 colon): 3.56 µM
GI50 (NCI-H460 lung): 3.25 µM
TGI (NCI-H460 lung): 10.9 µM
GI50 (SK-MEL-2 melanoma): 1.92 µM
TGI (SK-MEL-2 melanoma): 3.92 µM
GI50 (HOP-92 NSCLC): 1.61 µM
TGI (HOP-92 NSCLC): 3.44 µM
GI50 (NCI-H23 lung): 1.59 µM
TGI (NCI-H23 lung): 3.58 µM
GI50 (SNB-19 CNS): 5.92 µM
TGI (SNB-19 CNS): 18.6 µM
GI50 (MDA-MB-231 breast): 1.57 µM
TGI (MDA-MB-231 breast): 4.55 µM
GI50 (ACHN renal): 1.8 µM
TGI (ACHN renal): 3.27 µM
GI50 (SN12C renal): 1.67 µM
TGI (SN12C renal): 3.12 µM
GI50 (K-562 leukemia): 1.73 µM
TGI (K-562 leukemia): 4.25 µM
GI50 (UO-31 renal): 1.94 µM
TGI (UO-31 renal): 3.78 µM
GI50 (A549 NSCLC): 3.64 µM
TGI (A549 NSCLC): 14.9 µM
GI50 (SR leukemia): 0.354 µM
TGI (SR leukemia): 2.22 µM
GI50 (A498 renal): 3.95 µM
TGI (A498 renal): 14.3 µM
GI50 (M14 melanoma): 2 µM
TGI (M14 melanoma): 4.05 µM
GI50 (SF-268 CNS): 1.74 µM
TGI (SF-268 CNS): 3.72 µM
GI50 (MCF7 breast): 1.71 µM
TGI (MCF7 breast): 3.89 µM
GI50 (KM12 colon): 1.69 µM
TGI (KM12 colon): 3.54 µM
GI50 (LOX IMVI melanoma): 1.65 µM
TGI (LOX IMVI melanoma): 3.17 µM
GI50 (BT-549 breast): 2.48 µM
TGI (BT-549 breast): 5.47 µM
GI50 (TK-10 renal): 3.49 µM
TGI (TK-10 renal): 12.1 µM
GI50 (SF-295 CNS): 1.77 µM
TGI (SF-295 CNS): 3.47 µM
GI50 (RXF 393 renal): 1.59 µM
TGI (RXF 393 renal): 4.8 µM
GI50 (786-0 renal): 2 µM
TGI (786-0 renal): 3.99 µM
GI50 (SK-MEL-5 melanoma): 1.79 µM
TGI (SK-MEL-5 melanoma): 3.36 µM
GI50 (NCI/ADR-RES ovarian): 2.61 µM
TGI (NCI/ADR-RES ovarian): 6.3 µM
GI50 (SW-620 colon): 2.28 µM
TGI (SW-620 colon): 4.71 µM
GI50 (SK-OV-3 ovarian): 3.56 µM
TGI (SK-OV-3 ovarian): 13 µM
GI50 (CAKI-1 renal): 1.93 µM
TGI (CAKI-1 renal): 3.6 µM
GI50 (HL-60(TB) leukemia): 1.25 µM
TGI (HL-60(TB) leukemia): 3.33 µM
GI50 (HS 578T breast): 2.43 µM
TGI (HS 578T breast): 5.85 µM
GI50 (IGROV1 ovarian): 2.52 µM
TGI (IGROV1 ovarian): 7.98 µM
GI50 (OVCAR-4 ovarian): 1.21 µM
TGI (OVCAR-4 ovarian): 2.54 µM
GI50 (OVCAR-5 ovarian): 1.83 µM
TGI (OVCAR-5 ovarian): 3.69 µM
GI50 (HCT-15 colon): 2.43 µM
TGI (HCT-15 colon): 7.42 µM
GI50 (UACC-62 melanoma): 1.81 µM
TGI (UACC-62 melanoma): 3.36 µM
GI50 (MDA-MB-435): 1.77 µM
TGI (MDA-MB-435): 3.5 µM
GI50 (HOP-62 NSCLC): 2.95 µM
TGI (HOP-62 NSCLC): 9.35 µM
GI50 (T-47D breast): 1.74 µM
TGI (T-47D breast): 3.8 µM
GI50 (SF-539 CNS): 2.19 µM
TGI (SF-539 CNS): 4.14 µM
GI50 (NCI-H226 lung): 2.16 µM
TGI (NCI-H226 lung): 4.87 µM
GI50 (MOLT-4 leukemia): 0.941 µM
TGI (MOLT-4 leukemia): 2.67 µM
GI50 (HT29 colon): 1.93 µM
TGI (HT29 colon): 4.87 µM
GI50 (CCRF-CEM leukemia): 1.36 µM
TGI (CCRF-CEM leukemia): 6.48 µM
GI50 (OVCAR-3 ovarian): 1.08 µM
TGI (OVCAR-3 ovarian): 2.35 µM
